According to patent US20080153840A1, “REDUCTION OF CARDIOVASCULAR SYMPTOMS” (priority 2006, published 2008):
Structures can show the parent of a compound that is named as a salt. Where two headings read alike, the source gives them in different places.

Key:
anesthetized rabbits = assay: clofilium-induced Torsades de Pointes in methoxamine-treated anesthetized rabbits; format: in vivo, rabbit
Protocol: Spontaneous TdP was induced with methoxamine (α1-adrenoceptor agonist) followed by clofilium (Ikr blocker) in anesthetized rabbits as previously described by Carlsson et al (J. Cardiovas. Pharmacol 1990; 16:276-285). RAN was given via intravenous (iv) infusion 10 min prior to clofilium. Arterial pressure (BP), lead II ECG and endocardial Monophasic Action Potential (MAP) were recorded. QT interval was corrected for heart rate by using a formula developed for rabbits: QTc=QT−0.175*(RR−300).

female rabbit hearts = assay: female rabbit isolated hearts paced at 1 Hz: monophasic action potentials and 12-lead ECG
[1] = test system: slow component of the delayed rectifier K+ current; conditions: at 30 μM; cited from earlier work
[2] = test system: rabbit and guinea-pig isolated hearts and canine ventricular myocytes; conditions: cited from earlier work
[3] = test system: inward rectifier K+ current (IKI); conditions: cited from earlier work
[4] = cited from earlier work
[5] = test system: transient outward K+ current (Ito); conditions: cited from earlier work
[6] = target: HERG channels expressed in HEK293 cells (Homo sapiens, UniProt Q12809); conditions: for time constant for development of block of IHERG: human
Source text: Human-ether-a-go-go related gene (HERG) encodes the cardiac rapidly activating delayed rectifier K^+ current (IKr). Inhibition of HERG K^+ current (IHERG) is a mechanism for drug-induced long QT syndrome.

IKr = conditions: cited from earlier work
[7] = ranolazine 10 μM in the presence of 60 nM E-4031, n=9, p<0.01
[8] = iv infusion 10 min prior to clofilium, n=6

Chain of HERG channels expressed in HEK293 cells (Q12809 whole entry): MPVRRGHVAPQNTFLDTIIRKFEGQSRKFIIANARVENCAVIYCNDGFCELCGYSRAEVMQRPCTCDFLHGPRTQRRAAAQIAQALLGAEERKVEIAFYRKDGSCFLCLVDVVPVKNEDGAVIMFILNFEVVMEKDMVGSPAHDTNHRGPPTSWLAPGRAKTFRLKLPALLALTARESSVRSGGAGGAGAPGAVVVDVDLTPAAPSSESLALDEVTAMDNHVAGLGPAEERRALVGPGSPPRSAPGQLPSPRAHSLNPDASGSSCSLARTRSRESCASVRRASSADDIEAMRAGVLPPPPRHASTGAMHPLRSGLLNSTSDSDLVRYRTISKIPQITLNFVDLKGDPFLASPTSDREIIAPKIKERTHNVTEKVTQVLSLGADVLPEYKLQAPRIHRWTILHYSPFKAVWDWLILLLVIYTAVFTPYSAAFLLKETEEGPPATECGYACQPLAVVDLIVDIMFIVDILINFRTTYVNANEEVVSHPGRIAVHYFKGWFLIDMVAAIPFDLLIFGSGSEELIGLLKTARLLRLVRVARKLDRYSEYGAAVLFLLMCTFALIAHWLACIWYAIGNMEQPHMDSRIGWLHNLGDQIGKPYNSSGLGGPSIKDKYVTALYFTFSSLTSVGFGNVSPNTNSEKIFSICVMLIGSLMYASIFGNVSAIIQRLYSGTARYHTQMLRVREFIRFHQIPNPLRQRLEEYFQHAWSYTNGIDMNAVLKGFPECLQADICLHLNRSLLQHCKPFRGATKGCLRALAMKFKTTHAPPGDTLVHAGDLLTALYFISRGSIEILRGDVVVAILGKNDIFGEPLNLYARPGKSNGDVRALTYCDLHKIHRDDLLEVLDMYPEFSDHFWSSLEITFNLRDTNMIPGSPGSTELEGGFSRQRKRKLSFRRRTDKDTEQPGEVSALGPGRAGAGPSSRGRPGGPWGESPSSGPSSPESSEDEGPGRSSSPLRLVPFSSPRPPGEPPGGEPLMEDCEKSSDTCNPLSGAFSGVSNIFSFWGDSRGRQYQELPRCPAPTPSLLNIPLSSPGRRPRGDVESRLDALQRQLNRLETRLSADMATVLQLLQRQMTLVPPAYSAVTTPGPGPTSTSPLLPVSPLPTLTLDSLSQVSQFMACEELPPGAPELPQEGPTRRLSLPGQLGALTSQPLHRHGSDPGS

CCCCCCC[N+](CC)(CC)CCCCc1ccc(Cl)cc1.[Br-] [Clofilium, 4-chloro-N,N-diethyl-N-heptyl benzenebutanaminium bromide]
rabbits with TdP (anesthetized rabbits; clofilium after methoxamine, rabbits with TdP/rabbits): 6/6
MAPD90 after clofilium (anesthetized rabbits; from 123±6 ms, n=6, P<0.05): 201 ± 21 ms
QTc after clofilium (anesthetized rabbits; from 130±4 ms, n=6, P<0.05): 200 ± 18 ms

Cc1cccc(CCN2CCC(C(=O)c3ccc(NS(C)(=O)=O)cc3)CC2)n1 [E-4031, N-(4-[(1-[2-(6-methyl-2-pyridyl)ethyl]-4-piperidylcarbonyl]phenyl)methanesulfonamidedihydrochloride dehydrate]
epicardial MAPD90 with drug (female rabbit hearts): 254 ± 6 ms
increase of transmural MAPD dispersion (female rabbit hearts): 74 ± 7 ms
prolongation of duration of epicardial MAP (MAPD90) (female rabbit hearts): 75 ± 5 ms
transmural MAPD dispersion with drug (female rabbit hearts): 90 ± 10 ms

NC1=N[C@H](O)[C@H]2[C@H]3O[C@]4(O)O[C@@H]([C@@H](O)[C@@]2(N1)[C@@H]4O)[C@]3(O)CO [TTX, Tetrodotoxin]
changes in the QRS interval (female rabbit hearts): no or minimal changes
decrease of transmural dispersion (female rabbit hearts): 47 ± 11 ms
effect on MAPD90 (female rabbit hearts): no effects
effect on transmural dispersion of MAPD90 (female rabbit hearts): no effects
shortening of MAPD (female rabbit hearts): 33 ± 8 ms

COc1ccccc1OCC(O)CN1CCN(CC(=O)Nc2c(C)cccc2C)CC1 (stereo not shown) [ranolazine, N-(2,6-dimethylphenyl)-4-[2-hydroxy-3-(2-methoxyphenoxy)propyl]-1-piperazineacetamide]
inhibition of the slow component of the delayed rectifier K+ current (IKr) [1]: ~17%
increase in monophasic APD (MAPD) or QT interval ([2]; at therapeutic concentrations): 2 to 6 ms
pro-arrhythmic activity [2]: not associated with pro-arrhythmic activity
changes in the QRS interval (female rabbit hearts): no or minimal changes
effect on spontaneous and pause-triggered episodes of TdP induced by 60 nM E-4031 (female rabbit hearts; ranolazine 10 μM): abolished
decrease of transmural dispersion (female rabbit hearts; [7]): 40 ± 9 ms
shortening of MAPD90 (female rabbit hearts; [7]): 19 ± 5 ms
effect on transmural dispersion of MAPD90 (female rabbit hearts; ranolazine 5-30 μM alone): without increasing
prolongation of epicardial MAPD90 (female rabbit hearts; ranolazine 5-30 μM alone, concentration-dependent, n=7, p<0.01): 32±4%
effect on IKI [3]: no effect
effect on MAPD90 ([4]; in the absence of ATX-II): increased
effect on MAPD ([4]; in the presence of 2 nM ATX-II): shortened
effect on Ito [5]: no effect
character of block of IHERG [6]: reversible and voltage-dependent, but frequency-independent
time constant for development of block of IHERG ([6]; 10 μM): 76.6 ± 1.6 ms
time constant for development of block of IHERG ([6]; 30 μM): 35.8 ± 2.4 ms
time constant for development of block of IHERG ([6]; 100 μM): 19.4 ± 1.7 ms
effect on IKr (IKr): inhibit
occurrence of TdP (anesthetized rabbits; RAN at 25 μM, P<0.005 vs vehicle control): 0/6
QRS interval (anesthetized rabbits; RAN at 25 μM, from 32±1 ms, n=5, P>0.05): 33 ± 1 ms
PR interval (anesthetized rabbits; RAN at 25 μM, from 79±2 ms, n=5, P>0.05): 77 ± 1 ms
heart rate (anesthetized rabbits; RAN at 25 μM, from 186±9 bpm, n=5, P>0.05): 204±10 bpm
ED50 for suppression of clofilium-induced MAPD90 prolongation (anesthetized rabbits; [8]): 15 µM
ED50 for suppression of clofilium-induced QTc prolongation (anesthetized rabbits; [8]): 10 µM
ED50 for suppression of clofilium-induced TdP (anesthetized rabbits; [8]): 10 µM
